Assay results taken from paper PMC10447463, “Data-mining unveils structure–property–activity correlation of viral infectivity enhancing self-assembling peptides” (Nature Communications, 2023).
Where “and” joins values, the source holds several entries; their conditions need not be identical. Equal entries are not always repeated. Where two headings read alike, the source gives them in different places.

What was measured:
[1] = format: physicochemical; parameters: key to Fibril / Fibril Formation / TEM 2cat / Fibril: 1 = fibrils present; 0 non-fibrillar structures; conditions: for Fibril / Fibril Formation: 1 mg/mL, uranyl acetate stain, qualitative
[2] = β-sheet content by ATR-FT-IR; format: physicochemical; conditions: for b -sheet / %: Fig. S7 panel A, β-sheet content by ATR-FT-IR; for ß-sheet / %: ATR-FT-IR of lyophilised 1 mg/mL PNF solution, peak integral ratio 1625-1635 cm-1, measured once
Procedure, shortened: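 1 mg/mL PNF solutions lyophilized and powders measured by diamond ATR FT-IR (2 cm^-1 resolution, 64 scans); β-sheet content calculated per a prior method. For CR, PNF solution centrifuged through 3 kDa MWCO filter (16200 x g, 4 °C, 45 min); filtrate and unfiltered sample lyophilized, dissolved in DMSO, reacted with fluorescamine.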

[3] = Zeta-potential measurement; format: physicochemical; conditions: for Zeta pot. / mV: 1 mg/mL in PBS pH 7.4 from 10 mg/mL DMSO stock, 1 d RT, 60 µL diluted in 600 µL 1 mM KCl, Zetasizer Nano ZS, Smoluchowski, mean of triplicate
Procedure, shortened: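 Readout: zeta potential (mV) derived by Smoluchowski from measured electrophoretic mobility. Preformed aggregates (1 mg/mL peptide, PBS pH 7.4, RT for 1 d) were diluted into dilute KCl electrolyte (1 mM) shortly before analysis.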

[4] = Turbidity, derived count rate of scattered light; format: physicochemical; conditions: for Count Rate / kcps: derived count rate of scattered light at 633 nm, 173°, from zeta-potential measurement, 0.1 mg/mL in 1 mM KCl after 1 d at 1 mg/mL in PBS, turbidity / microscopic aggregation, mean of triplicate
Procedure, shortened: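 Samples: 1 mg/mL in PBS pH 7.4 (from DMSO), 1 d at RT, then diluted in 1 mM KCl immediately before measurement. Triplicates, two independent runs averaged.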

[5] = Turbidity, derived count rate of scattered light; format: physicochemical; conditions: for Count Rate: derived count rate of scattered light (turbidity); for Log10 Count Rate: turbidity, derived count rate of scattered light, data of Figure 2D
[6] = Fig S10 panel D, fibril category by TEM
[7] = TEM, 1 = fibrils present, 0 = non-fibrillar
[8] = TEM, 1 = fibrils present, 0 = non-fibrillar structures
[9] = category: fibrils present or non-fibrillar
[10] = zeta potential of peptide assemblies
[11] = zeta-potential of peptide, source data of Figure 2C
[12] = zeta-potential of the peptide assemblies, mean, Figure 3A source data
[13] = Log10 of derived count rate of scattered light (turbidity)
[14] = log10 of derived count rate of scattered light (turbidity)
[15] = turbidity, Log10 of derived count rate of scattered light, Figure 3A source data
[16] = FigS12 panel A, fibril category by TEM
[17] = logarithm of count rate in kcps

| Substance | TEM 2cat [1, 6] | Fibril ([1]; Fig S10 panel E) | Fibril / Fibril Formation ([1]; TEM) | Fibril [1, 7] | Fibril [1, 8] | TEM 2cat [1, 9] | b -sheet / % [2] | Zeta-Pot. [3, 10] | Zeta-Potential / mV [3, 11] | Zeta-Potential / mV [3, 12] | Log10 Count Rate [4, 13] | Count Rate / kcps [4] | Log10 Count Rate [4, 14] | Log10 Count Rate [4, 15] | Count Rate [5] | Log10 Count Rate [5] | TEM 2cat [1, 16] | Fibril ([1]; FigS12 panel B, TEM) | Zeta-Pot. [3] | Zeta pot. / mV [3] | also measured |
| --- | --- | --- | --- | --- | --- | --- | --- | --- | --- | --- | --- | --- | --- | --- | --- | --- | --- | --- | --- | --- | --- |
| RGDCKFKFQF | 1 | 1 | 1 | 1 | 1 | 1 | 46.68% | 13.87 | 16.37 mV | 13.87 mV | 3.1264 | 1338 kcps | 3.1264 | 3.1264 | 1338 | 3.1264 |  |  |  |  |  |
| EIEIQINM | 1 | 1 | 1 | 1 | 1 |  | 53.87% |  | -21.58 mV | -23.33 mV | 2.127 | 134 kcps | 2.127 | 2.127 | 134 | 2.127 | 1 | 1 | -23.33 |  |  |
| CKIKIQINMW | 1 |  | 1 | 1 | 1 | 1 | 42.9134% |  | 18.43 mV | 18.3 mV | 3.692 | 4915 kcps | 3.692 | 3.692 | 4915 | 3.692 |  |  | 18.3 |  |  |
| CSISIQINM | 1 | 1 | 1 | 1 | 1 | 1 | 55.93% | -19.4 | -21.18 mV | -19.4 mV | 3.517 | 3291 kcps | 3.517 | 3.517 | 3291 | 3.517 |  |  |  |  |  |
| KFKFEFEF | 1 |  | 1 | 1 | 1 |  | 40.95% | -2.55 | -2.87 mV | -2.55 mV | 3.34 | 2186 kcps | 3.34 | 3.34 | 2186 | 3.34 | 1 | 1 |  |  |  |
| RGDCKIKIQINM | 1 |  | 1 | 1 | 1 | 1 | 43% | 11.3 | 12.35 mV | 11.3 mV | 3.2102 | 1623 kcps | 3.2102 | 3.2102 | 1623 | 3.2102 |  |  |  |  |  |
| KIKIQIW | 1 |  | 1 | 1 | 1 | 1 | 49.1721% |  | 11.255 mV | 12.5 mV | 2.161 | 145 kcps | 2.161 | 2.161 | 144.9 | 2.161 |  |  | 12.5 |  |  |
| CKIKIQI | 1 | 1 | 1 | 1 | 1 | 1 | 53% | 12.8 | 13.2 mV | 12.8 mV | 3.386 | 2432 ± 1342 kcps and 2433 kcps | 3.386 | 3.386 | 2432.9 | 3.386 |  |  |  | 12.8 mV | FTIR ß-sheet content [2]: 53%; Log10 Count Rate [4, 17]: 3.386; Zeta Count Rate ([4]; mean of the 3 replicates): 2432.9 kcps; Zeta Count Rate ([4]; replicate 2): 1640.5 kcps; Zeta Count Rate ([4]; replicate 3): 4323.3 kcps |
| QCKAKAQANM |  | 0 | 0 | 0 | 0 |  | 35.27% |  | -4.641 mV | -8.36 mV | 2.31 | 204 kcps |  | 2.31 | 204.1 | 2.31 | 0 | 0 | -8.357 | -8.4 mV | TEM 2cat ([1]; Fig S10 panel D): 0; ß-sheet / % [2]: 35%; Log10 Count Rate [4, 17]: 2.3; Log10 Count Rate ([4]; turbidity, log10 of derived count rate of scattered light): 2.31 |
| KAKAQANM | 0 |  | 0 | 0 | 0 |  | 32.8491% | -2.62 | -2.065 mV | -2.62 mV | 1.628 | 43 kcps | 1.628 | 1.628 | 42.5 | 1.628 | 0 | 0 |  | -2.6 mV | ß-sheet / % [2]: 33%; Log10 Count Rate [4, 17]: 1.6 |
